{"source": "patent US8741929B2", "about": "“Methods using 3-(4-amino-1-oxo-1,3-dihydro-isoindol-2-yl)-piperidine-2,6-dione for treatment of mantle cell lymphomas” (Celgene Corporation, priority 2006, dated 2014)", "key": {"[1]": {"tested_on": "relapsed and refractory aggressive non-Hodgkin's lymphoma (NHL)", "assay": "Phase II study of oral lenalidomide monotherapy in patients", "format": "in vivo, human", "experimental": "A multi-center, open-label, Phase II study was conducted in patients with relapsed and refractory aggressive non-Hodgkin's lymphoma (NHL). […] Patients in the study received lenalidomide in an amount of 25mg orally once daily for days one to 21 in a 28-day cycle and continued therapy for 52 weeks as tolerated or until disease progression.\nTwenty-five patients age 45 to 80 years (median age 63), with relapsed and refractory aggressive NHL, and who had received a median of 2.5 prior treatments (range: 1-6 prior treatments), were administered with lenalidomide in an amount of 25 mg orally once daily for 21 days in the treatment cycle. Sixteen patients with aggressive NHL were evaluable for tumour assessment. Of the 16 patients, eight had diffuse large cell lymphoma, three had mantle cell lymphoma, two patients had follicular lymphoma, one had transformed lymphoma, and two had aggressive lymphoma of unknown histology."}, "[2]": {"tested_on": "relapsed or refractory mantle cell lymphoma (MCL)", "protocol": "A single-center, open label, phase I/II study was conducted to determine the maximum tolerated dose (MTD) and to evaluate the efficacy of 3-(4-amino-1-oxo-1,3-dihydro-isoindol-2-yl)-piperidin-2,6-dione (lenalidomide or Revlimid®) in combination with rituximab for relapsed or refractory mantle cell lymphoma (MCL). Patients with one to four lines of prior therapy were eligible. Patients with prior treatment using thalidomide or rituximab, regardless of resistance, were eligible. […] A standard phase I dose escalation was used to determine MTD with dose levels at 10 mg, 15 mg, 20 mg, and 25 mg of Revlimid®. Dose-limiting toxicity (DLT) was defined as grade 3 or 4 non-hematologic or grade 4 hematologic toxicity during the first cycle.\nEach cohort had 3 patients. […] The number of cycles given ranged from one to five cycles."}, "[3]": {"settings": "25 mg daily, 21/28 days, 16 evaluable patients"}, "[4]": {"settings": "25 mg orally once daily days 1-21 of 28-day cycle, 16 evaluable patients"}, "[5]": {"settings": "first cycle, + rituximab, number of patients/events"}}, "note": "Several values for one entry are separate records, joined by “and”; a condition that tells them apart may be missing. Equal entries are not always repeated."}
{"smiles": "Nc1cccc2c1CN(C1CCC(=O)NC1=O)C2=O", "note": "(centres unmarked) [Revlimid®, 3-(4-amino-1-oxo-1,3-dihydro-isoindol-2-yl)-piperidine-2,6-dione]", "values": [{"measurement": "complete response", "setting": "[1]; [3]", "result": "One"}, {"measurement": "partial responses", "setting": "[1]; [3]", "result": "four"}, {"measurement": "stable disease", "setting": "[1]; [3]", "result": "Four"}, {"measurement": "Grade 4 adverse reaction", "setting": "[1]; 25 mg daily, 21/28 days, of 22 patients", "result": "three"}, {"measurement": "Grade 3 and 4 adverse events", "setting": "[1]; 25 mg daily, 21/28 days, predominately haematological and Grade 3", "result": "ten of 22"}, {"measurement": "objective responses", "setting": "[1]; [4]", "result": "five"}, {"measurement": "objective responses (rate)", "setting": "[1]; [4]", "result": 31, "unit": "per cent"}, {"measurement": "disease progression", "setting": "[1]; after a median follow-up of two months (range one to seven months)", "result": "Seven"}, {"measurement": "progression free survival", "setting": "[1]; one patient with diffuse large cell lymphoma, complete response", "result": "more than 180 days"}, {"measurement": "progression free survival", "setting": "[1]; one patient with follicular lymphoma, partial response", "result": "more than 55 days"}, {"measurement": "progression free survival", "setting": "[1]; one patient with mantle cell lymphoma, partial response", "result": "more than 57 days"}, {"measurement": "progression free survival", "setting": "[1]; single patients with diffuse large cell lymphoma, partial response, listed as lenalidomide", "result": "135 days and 242 days"}, {"measurement": "stable disease", "setting": "[2]; at cycle 3 and cycle 5, respectively, + rituximab, seven evaluable", "result": "Two"}, {"measurement": "maximum tolerated dose (MTD)", "setting": "[2]; dose levels up to 20 mg Revlimid + rituximab 375 mg/m^2 weekly", "result": "the MTD has not been reached"}, {"measurement": "grade 3 toxicity (thrombocytopenia) beyond the first cycle", "setting": "[2]; during cycle 2, + rituximab, number of events", "result": 1}, {"measurement": "grade 2 anemia", "setting": "[2]; first cycle, + rituximab", "result": "one"}, {"measurement": "Grade 1 hematologic events: anemia", "setting": "[2]; [5]", "result": 1}, {"measurement": "Grade 1 hematologic events: leukopenia", "setting": "[2]; [5]", "result": 3}, {"measurement": "Grade 1 hematologic events: thrombocytopenia", "setting": "[2]; [5]", "result": 2}, {"measurement": "Grade 1 non-hematologic toxic events: fatigue", "setting": "[2]; [5]", "result": 4}, {"measurement": "Grade 1 non-hematologic toxic events: myalgias", "setting": "[2]; [5]", "result": 2}, {"measurement": "Grade 1 non-hematologic toxic events: pruritis", "setting": "[2]; [5]", "result": 3}, {"measurement": "Grade 1 non-hematologic toxic events: stomatitis", "setting": "[2]; [5]", "result": 3}, {"measurement": "Grade 2 non-hematologic toxic events: myalgias", "setting": "[2]; [5]", "result": 2}, {"measurement": "Grade 2 non-hematologic toxic events: rash", "setting": "[2]; [5]", "result": 2}, {"measurement": "study conclusion on efficacy", "setting": "[2]; particularly relapsed or refractory mantle cell lymphoma", "result": "effective in treating mantle cell lymphoma"}]}
